Laboratory results: article PMC12604929, “Tumor-specific cytotoxicity of pyrazole-based chalcone derivatives in human oral squamous cell carcinoma cell lines” (Turkish Journal of Biology, 2025)
Entries after “also recorded” stand apart in the source; their conditions may differ. Where two headings read alike, the source gives them in different places.

Tests used:
[1] = test system: Ca9-22 cells (OSCC, gingival tissue); test: MTT cytotoxicity assay, Ca9-22; assay type: cell-based, human; conditions: for TS (C/A) tumor-selectivity index: CC50 HGF / CC50 Ca9-22 (both gingival); for CC50: OSCC, 48 h, MTT, average of three determinations; for PSE (C/A^2)x100 potency-selectivity expression: HGF vs Ca9-22 (both gingival)
Protocol: (§2) The viable cell number was determined in triplicate by the MTT method, following the approach adopted in previous studies ([Nagai et al., 2018]; [Shi et al., 2018] ). Briefly, the cells were incubated for 2 h with 0.2 mg/mL of MTT, and the formed formazan was dissolved with 0.1 mL of DMSO to determine the relative viable cell number at 560 nm.
(§3) Cells were inoculated at 2×10^3 cells/0.1 ml in a 96-microwell plate. […] Cells were incubated further for 48 h and the relative viable cell number was then determined by the MTT method and expressed as the absorbance of the cell lysate at 560 nm, using a microplate reader (Infinite F50R; TECAN, Männedorf, Switzerland) [49, 50]. Control cells were treated with the same amounts of DMSO and the cell damage induced by DMSO was subtracted from that induced by test agents. The concentration of compound that reduced the viable cell number by 50% (CC50) was determined from the dose–response curve and the mean value of CC50 for each cell type was calculated from triplicate assays.
(§4) Human oral squamous cell carcinoma (OSCC) cell lines [Ca9-22 (derived from gingival tissue); and HSC-2, HSC-3, HSC-4 (derived from tongue)] were purchased from Riken Cell Bank (Tsukuba, Japan). All of these cells were cultured at 37°C in DMEM supplemented with 10% heat-inactivated fetal bovine serum, 100 units/ml, penicillin G and 100 µg/ml streptomycin sulfate under a humidified 5% CO2 atmosphere. Cell morphology was checked periodically under a light microscope (EVOS FL; Thermo Fisher Scientific, Waltham, MA, USA).

[2] = test system: HSC-3 cells (OSCC, tongue); test: MTT cytotoxicity assay, HSC-3; assay type: cell-based, human; conditions: for CC50: OSCC, 48 h, MTT, average of three determinations; for increase of cytotoxicity against HSC-3 compared to MS4: relative to unsubstituted phenyl derivative MS4
Protocol: as §2, §3, §4

[3] = test system: HSC-4 cells (OSCC, tongue); test: MTT cytotoxicity assay, HSC-4; assay type: cell-based, human; conditions: average of three determinations
Protocol: as §2, §3, §4

[4] = MTT cytotoxicity assay, HGF; assay type: cell-based, human; conditions: human, human gingival fibroblasts (HGF), normal oral cells, average of three determinations
Protocol: as §2, §3, §4

[5] = MTT cytotoxicity assay, HPLF; assay type: cell-based, human; conditions: female, human, normal oral cells, average of three determinations
Protocol: as §2, §3
(§5) All of these cells were cultured at 37°C in DMEM supplemented with 10% heat-inactivated fetal bovine serum, 100 units/ml, penicillin G and 100 µg/ml streptomycin sulfate under a humidified 5% CO2 atmosphere.

[6] = MTT cytotoxicity assay, HPC; assay type: cell-based, human; conditions: female, human, human pulp cells (HPC), normal oral cells, average of three determinations
Protocol: as §2, §3, §5

[7] = test system: human OSCC cell lines (Ca9-22, HSC-2, HSC-3, HSC-4); test: MTT cytotoxicity, four OSCC cell lines together (mean, TS, PSE, type of growth inhibition); assay type: cell-based; conditions: for CC50: mean of Ca9-22, HSC-2, HSC-3, HSC-4, read-out: CC50 OSCC mean (B); for type of growth inhibition on the OSCC cell lines: from dose-response curves, Figure 4, cytostatic = without complete cytotoxicity, cytotoxic = complete cell death; for TS (D/B) tumor-selectivity index: mean CC50 normal cells / mean CC50 OSCC cell lines; for PSE (D/B^2)x100 potency-selectivity expression: three normal cell types vs four OSCC cell lines
Protocol: TS was calculated using the following equation: TS=mean CC50 against three normal oral cell types/mean CC50 against four OSCC cell lines (HGF, HPLF, HPC vs. Ca9-22, HSC-2, HSC-3, HSC-4). Since both Ca9-22 and HGF cells were derived from the gingival tissue, the relative sensitivity of these cells was also compared (as: CC50 against HGF/ CC50 against Ca9-22).
PSE was calculated by the following equation: PSE=mean CC50 against three normal oral cell types/(CC50 against four OSCC cell lines)2 × 100 (HGF, HPLF, HPC vs. Ca9-22, HSC-2, HSC-3, HSC-4); and as CC50 against HGF/(CC50 against Ca9-22)2 × 100 using the pair of cell types from the same tissue (gingiva) (see Table 1).
(§1) Estimation of CC50 values. […] The mean pCC50 values for normal cells and tumor cell lines were defined as N and T, respectively.

[8] = MTT cytotoxicity, three normal oral cell types together (mean); assay type: cell-based, human; conditions: female, human; mean of HGF, HPLF, HPC; read-out: CC50 normal oral cells mean (D)
From the text: as §1

[9] = test system: HSC-2 cells; test: Cell-cycle analysis (propidium iodide, cell sorting); assay type: cell-based, human; conditions: HSC-2, 24 h; for subG1 cell population: control 1.9 %; for share of S-phase cells: control 15.6%; for share of G2+M phase cells: control 20.5%
Protocol: Cell-cycle analysis was performed following the process described in the literature ([Kantoh et al., 2010]; [Nagai et al., 2018]; [Shi et al., 2018]), details of which are presented in a supplementary file. Briefly, cells (approximately 10^6 in number) were fixed with paraformaldehyde in PBS(−) and treated with RNase A. After staining with propidium iodide in the presence of 0.01% Nonidet-40 to prevent cell aggregation, the cells were filtered through Falcon cell strainers and then subjected to cell sorting, analyzed with Cell Sorter Software (version 2.1.2) (SONY Imaging Products and Solution Inc., Kanagawa, Japan).
HSC-2 cells were incubated for 24 h with actinomycin D (Act.D) (positive control of apoptosis induction) or MS4, 7, or 8, or without treatment (control), and subjected to cell cycle analysis. […] D (1 μM) (p < 0.05) from 1.9 % to 12.5%. […] The cell cycle analysis was performed only with HSC-2 cells; therefore, experiments with other OSCC cell lines should be conducted to support the generalization of our findings.
Treated and untreated cells (approximately 10^6 cells) were harvested, fixed with 1% paraformaldehyde in PBS without calcium and magnesium ions [PBS(−)]. Fixed cells were then washed twice with PBS(−) and treated for 30 min with 400 μl of 0.2 mg/ml RNase A (preheated for 10 min at 100 °C to inactivate DNase) to degrade RNA. Cells were then washed twice with PBS(−) and stained for 15 min with 0.01% propidium iodide (PI) in the presence of 0.01% NP-40 in PBS(−) to prevent cell aggregation. After filtering through Falcon® cell strainers ([…]) (Corning, NY, USA) to remove aggregated cells, PI-stained cells were subjected to cell sorting (SH800 Series; SONY Imaging Products and Solutions Inc., Kanagawa, Japan). Cell-cycle analysis was performed with Cell Sorter Software version 2.1.2. (SONY Imaging Products and Solution Inc.).

[10] = test system: HSC-2 cells (OSCC, tongue); test: MTT cytotoxicity assay, HSC-2; conditions: for CC50: read-out: CC50 HSC-2; for relative cytotoxicity against HSC-2: from CC50 values 1.1, 2.8, 3.6 μM
Protocol: as §2, §3, §4

[11] = test system: HeLa cells; parameters: method as in El-Awady et al., 2011; conditions: most resistant of five cancer cell lines; ref El-Awady et al., 2011; cited from earlier work
[12] = test system: U251 cells; parameters: method as in El-Awady et al., 2011; conditions: most sensitive of five cancer cell lines; ref El-Awady et al., 2011; cited from earlier work
[13] = test system: gingival fibroblast (HGF), normal oral cells; test: MTT cytotoxicity assay, HGF; assay type: cell-based, human; conditions: 48 h, average of three determinations
Protocol: as §2, §3, §4

[14] = test system: periodontal ligament fibroblast (HPLF), normal oral cells; test: MTT cytotoxicity assay, HPLF; assay type: cell-based, human; conditions: 48 h, average of three determinations
Protocol: as §2, §3, §5

[15] = test system: pulp cells (HPC), normal oral cells; test: MTT cytotoxicity assay, HPC; assay type: cell-based, human; conditions: 48 h, average of three determinations
Protocol: as §2, §3, §5

[16] = test system: human normal oral cells (HGF, HPLF, HPC); test: MTT cytotoxicity, three normal oral cell types together (mean); assay type: cell-based; conditions: mean of HGF, read-out: CC50 normal oral cells mean (D)
From the text: as §1

SMILES	TS (C/A) tumor-selectivity index [1]	CC50 ([1]; Homo sapiens, Ca9-22) [µM]	CC50 ([2]; Homo sapiens, HSC-3) [µM]	increase of cytotoxicity against HSC-3 compared to MS4 [2]	CC50 ([3]; Homo sapiens, HSC-4, 48 h) [µM]	CC50 at 48 h [4] [µM]	CC50 at 48 h [5] [µM]	CC50 at 48 h [6] [µM]	CC50 ([7]; Homo sapiens) [µM]	type of growth inhibition on the OSCC cell lines [7]	TS (D/B) tumor-selectivity index [7]	PSE (D/B^2)x100 potency-selectivity expression [7]	CC50 at 48 h [8] [µM]	effect on cell cycle distribution [9]	share of S-phase cells ([9]; concentration not given) [%]	share of G2+M phase cells ([9]; concentration not given) [%]	CC50 ([10]; Homo sapiens, HSC-2, 48 h) [µM]	relative cytotoxicity against HSC-2 [10] [fold]	PSE (C/A^2)x100 potency-selectivity expression [1]	further results
COc1cc(OC)c(C(=O)/C=C/c2cn(-c3ccc(S(N)(=O)=O)cc3)nc2-c2ccccc2)cc1OC [MS7, (E)-4-(4-(3-Oxo-3-(2,4,5-trimethoxyphenyl)prop-1-en-1-yl)-3-phenyl-1H-pyrazol-1-yl)benzenesulfonamide]	>247.4	1.6	3.3	1.5–2 times	3	> 400	> 400	> 400	2.7	cytotoxic effects; also recorded: cytotoxic growth inhibition	>148.7	> 5531	> 400	increased the cell population in the S and G2/M phases	20.6	35.0	2.8	1.3		times more cytotoxic towards Ca9-22 than 5-FU ([1]; relative to reference compound 5-FU): 20.6 times; subG1 cell population ([9]; 5.6 μM): 1.0%; subG1 cell population ([9]; 11.2 μM): 1.3%; G1 phase cells ([9]; control 63.2%, concentration not given): 44.5%; effect on cell cycle distribution ([9]; listed as 7): induced G2+M arrest
Cc1ccc(-c2cc(C(F)(F)F)nn2-c2ccc(S(N)(=O)=O)cc2)cc1 [celecoxib]																				IC50 [11]: 37.2 µM; IC50 [12]: 11.7 µM
NS(=O)(=O)c1ccc(-n2cc(/C=C/C(=O)c3ccccc3)c(-c3ccccc3)n2)cc1 [MS4, (E)-4-(4-(3-Oxo-3-phenylprop-1-en-1-yl)-3-phenyl-1H-pyrazol-1 yl) benzenesulfonamide]	71.2									cytostatic effects; also recorded: cytostatic growth inhibition	>103.7	> 2800		increased the cell population in the S and G2/M phases; also recorded: only slightly induced such changes in cell cycle distribution; also recorded: induced G2+M arrest				3.3	> 1444	CC50 [1]: 4.9 µM; CC50 [2]: 5.2 µM; CC50 ([3]; 48 h): 3.5 µM; CC50 [13]: 351 µM; CC50 [14]: > 400 µM; CC50 [15]: > 400 µM; CC50 [7]: 3.7 µM; CC50 [16]: > 384 µM; subG1 cell population ([9]; 2.2 μM): 2.0%; CC50 ([10]; OSCC, 48 h, MTT, average of three determinations): 1.1 µM
COc1cc(C(=O)/C=C/c2cn(-c3ccc(S(N)(=O)=O)cc3)nc2-c2ccccc2)cc(OC)c1OC [MS8, (E)-4-(4-(3-Oxo-3-(3,4,5-trimethoxyphenyl)prop-1-en-1-yl)-3-phenyl-1H-pyrazol-1-yl)benzenesulfonamide]	>169.0	2.4	4	1.5–2 times	3.5	> 400	340	> 400	3.3	cytotoxic effects; also recorded: cytotoxic growth inhibition	>113.5	> 3389	> 380	increased the cell population in the S and G2/M phases	21.2	35.4	3.6		> 7141	subG1 cell population ([9]; 7.2 μM): 1.3%; effect on cell cycle distribution ([9]; listed as 8): induced G2+M arrest
